Test results taken from US20220087987A1, “A METHOD FOR TREATING SWI/SNF COMPLEX-DEFICIENT CANCERS COMPRISING GLUTATHIONE (GSH) METABOLIC PATHWAY INHIBITOR” (National Cancer Center, priority 2018, published 2022).

Key:
[1] = test system: diffuse-type gastric cancer PDCs; assay: Cell viability of diffuse-type gastric cancer PDCs; assay type: cell-based, human; settings: treatment for 6 days
[2] = test system: bile duct cancer cell lines; assay: Cell viability of bile duct cancer cell lines; assay type: cell-based, human; settings: treatment for 6 days
Protocol: (§1) Cell viability was examined by measuring the cellular ATP level using the CellTiter-Glo Luminescent Cell Viability Assay (Promega). To measure cell viability after siRNA-mediated knockdown, cell lines were transfected with siRNAs (25 nM) using Lipofectamine RNAiMAX. After 48 hrs, cells were trypsinized and repeatedly transfected with siRNAs (25 nM) using Lipofectamine RNAiMAX. Cells were trypsinized after a further 48 hrs, counted, and reseeded at the specified density in 96-well plates. To measure cell viability after drug treatment, cells were trypsinized, counted, reseeded at the specified density in 96-well plates, and exposed to the indicated concentrations of drugs. Cell viability was measured using the CellTiter-Glo Luminescent Cell Viability Assay. Luminescence was measured using an Envision Multi-label plate reader (PerkinElmer).

GSH = assay: Detection of GSH in cells (GSH/GSSG-Glo, GSH-Glo); assay type: cell-based, human; settings: ARID1A-deficient versus ARID1A-proficient ovarian and other cancer cells
[3] = test system: SWI/SNF complexes (SMARCA2, SMARCA4, SMARCB1, PBRM1) deficient cancer cells; assay: Cell viability of SWI/SNF complex-deficient cancer cell lines; assay type: cell-based, human; settings: treatment for 6 days
Protocol: as §1

[4] = test system: ARID1A-proficient and ARID1A-deficient cancer cell lines; assay: Cell viability and colony formation in cancer cell line panel; assay type: cell-based, human
[5] = test system: ARID1A-KO cells and ARID1A-deficient cancer cells; assay: Apoptosis detection (cleaved caspase-3/7, Annexin V); assay type: cell-based, human
Protocol: The Annexin V-FITC/PI Apoptosis Detection Kit (Sigma-Aldrich) was used to detect apoptotic cells. Briefly, the cell pellet was suspended in 1× binding buffer and then incubated with Annexin V-FITC and PI in the dark for 10 min. Fluorescence was analyzed on a Guava flow cytometer (Millipore). Data were analyzed using GuavaSoft software (v. 2.7). Relative ratios of the Annexin V-positive fraction in treated samples were normalized against untreated samples.
GSH, ROS and apoptosis were detected using the GSH/GSSG-Glo Assay (Promega) and/or the GSH-Glo Assay (Promega), the ROS-Glo Assay (Promega), and the Caspase-Glo 3/7 Assay, respectively. To measure levels of GSH, ROS and apoptosis after drug treatment, cells were trypsinized, counted, reseeded at the specified density in 96-well plates and exposed to the indicated concentrations of drugs. After 16-48 hrs, luminescence was measured using an Envision Multi-label plate reader (PerkinElmer). […] Cells were trypsinized after a further 48 hrs, counted, and reseeded at the specified density in 96-well plates. After 72-120 hrs, luminescence was measured using an Envision Multi-label plate reader (PerkinElmer). Cell viability was also measured using the CellTiter-Glo Luminescent Cell Viability Assay (Promega). […] The GSH/GSSG ratio was calculated as the GSH-GSSG signal divided by the GSSG/2 signal. […]

[6] = test system: ARID1A-deficient TOV21G OCCC xenografts; assay: Mouse xenograft model, TOV21G; assay type: in vivo, mice; settings: APR-246 50 mg/kg
Protocol: All mouse experiments were approved by the National Cancer Center (NCC) animal Ethical Committee. Cells were counted and re-suspended in a 1:1 mixture of 100 μl culture medium and 100 μl Matrigel (BD Biosciences) on ice. […] In the subcutaneous model, once the tumors were palpable (about 3-14 days after implantation), mice were randomly divided into two groups. […] In the doxycycline (Dox) treatment study, TOV21G-shNT cells and TOV21G-shGCLC cells were injected into the flanks of 6-week-old female BALB/c-nu/nu mice. […] In other experiments, TOV21G-shNT cells and TOV21G-shGCLC cells were treated with Dox (0.5 μg/ml) for 4 days and then injected into the flank of 6-week-old female BALB/c-nu/nu mice. […] Tumor growth was measured every several days using calipers. The volume of implanted tumors was calculated using the formula V=L×W2/2, where V is volume (mm^3), L is the largest diameter (mm), and W is the smallest diameter (mm). At the end of the experiment, mice were sacrificed in accordance with standard protocols.
GSH was detected using the GSH-Glo Assay (Promega). Tumor samples derived from xenografts were weighed and washed with PBS. The tumor samples were mixed with 50 μl of PBS and homogenized using a Mini Cordless Grinder (Funakoshi). PBS (950 μl) was added to homogenized tumor samples and centrifuged at 4° C. for 10 min at 15,000 rpm. Tumor extract and 2×GSH-Glo Reagent (25 μl of each) were mixed in white 96-well plates (Greiner) and incubated for 30 min at room temperature. Luciferin Detection Reagent (50 μl) was added and the samples were incubated for 15 min at room temperature. Luminescence was measured using an Envision Multi-label plate reader (PerkinElmer). GSH signal intensities per 1 mg of tumor sample were calculated.
Formalin-fixed, paraffin-embedded ovarian cancer clinical specimens and TOV21G xenografts were deparaffinized and representative whole 4-μm-thick sections were analyzed by IHC. […] The samples were removed from the freezer and equilibrated at −20° C. for approximately 15 minutes before sectioning. Tissue sections (6 μm thick) were placed on positively charged slides, dried, and fixed for 15 minutes at room temperature in 3% formaldehyde, followed by 5 minutes in methanol at −20° C. After fixation, representative sections were analyzed by IHC. […] All IHC staining was performed using a Dako autostainer Link48 (Dako).
First, membrane staining intensity (0, 1+, 2+, or 3+) was determined for each cell in a fixed field. The H-score was assigned using the following formula: [1×(% cells 1+)+2×(% cells 2+)+3×(% cells 3+)]. The final score, ranging from 0 to 300, gives more relative weight to higher-intensity membrane staining in a given tumor sample. The percentage of NOXA-, cleaved caspase-3-, cleaved PARP- and Ki67-positive cells (of the total number of cells) in each slide were counted.

ROS = assay: Detection of ROS in cells (ROS-Glo); assay type: cell-based, human; settings: ARID1A-deficient versus ARID1A-proficient ovarian and other cancer cells
Protocol: GSH, ROS and apoptosis were detected using the GSH/GSSG-Glo Assay (Promega) and/or the GSH-Glo Assay (Promega), the ROS-Glo Assay (Promega), and the Caspase-Glo 3/7 Assay, respectively. To measure levels of GSH, ROS and apoptosis after drug treatment, cells were trypsinized, counted, reseeded at the specified density in 96-well plates and exposed to the indicated concentrations of drugs. After 16-48 hrs, luminescence was measured using an Envision Multi-label plate reader (PerkinElmer). To measure levels of GSH and ROS after siRNA-mediated knockdown, cell lines were transfected with siRNAs (25 nM) using Lipofectamine RNAiMAX. After 48 hrs, cells were trypsinized and transfected repeatedly with siRNAs (25 nM) using Lipofectamine RNAiMAX. Cells were trypsinized after a further 48 hrs, counted, and reseeded at the specified density in 96-well plates. After 72-120 hrs, luminescence was measured using an Envision Multi-label plate reader (PerkinElmer). Cell viability was also measured using the CellTiter-Glo Luminescent Cell Viability Assay (Promega). Caspase-3/7, GSH, and ROS levels were normalized against cell viability. The GSH/GSSG ratio was calculated as the GSH-GSSG signal divided by the GSSG/2 signal. Relative signal ratios in treated samples were normalized against untreated samples.

ovarian PDCs = assay: Cell viability of ovarian patient-derived cancer cells; assay type: cell-based, human; settings: 33 μM APR-246 or 100 μM BSO for 6 days
Protocol: Tumor samples and ascites were obtained from four ovarian cancer patients who underwent surgery or cell-free and concentrated ascites reinfusion therapy at the National Cancer Center Hospital or Kaname-cho Hospital (Tokyo, Japan) and were cultured in vitro. This protocol was approved by the Institutional Review Board of the National Cancer Center (Tokyo, Japan), and informed consent was obtained from the patients. To establish CCCO219 and CCC1216 PDCs, patient ascites (24 ml) were diluted in two volumes of PBS containing 2 mM EDTA, layered over 15 ml Ficoll-Paque PLUS (GE Healthcare), and centrifuged at 2200 rpm for 30 min. The interphase mononuclear layer was transferred to a fresh conical tube and washed twice with PBS containing 2 mM EDTA. […]
as §1, with “To measure cell viability after siRNA-mediated knockdown, cell lines were transfected with siRNAs (25 nM) using Lipofectamine RNAiMAX. After 48 hrs, cells were trypsinized and repeatedly transfected with siRNAs (25 nM) using Lipofectamine RNAiMAX.” left out

[7] = test system: uterine cancer cell lines; assay: Cell viability of uterine cancer cell lines; assay type: cell-based, human; settings: treatment for 6 days
Protocol: as §1

CCCCS(=N)(=O)CCC(N)C(=O)O (stereo not shown) [BSO, buthionine sulfoximine]
sensitivity to BSO (relative AUC for cell viability) [1]: sensitized ARID1A-deficient PDCs more efficiently than ARID1A-proficient PDCs | sensitivity to BSO of bile duct cancer cell lines [2]: sensitized ARID1A-deficient cell lines more efficiently than ARID1A-proficient cell lines | GSH level in cancer cell lines (GSH): decreased the GSH level | sensitivity to BSO (relative AUC for cell viability) [3]: sensitized these SWI/SNF complexes deficient cell lines more efficiently than these SWI/SNF complexes proficient cell lines | sensitivity of ARID1A-deficient TOV21G versus ARID1A-proficient RMG-I ovarian cancer cells ([4]; cell viability after 3 days): more sensitive than ARID1A-proficient RMG-I ovarian cancer cells | sensitivity of ARID1A-deficient versus ARID1A-proficient cancer cells ([4]; four ARID1A-proficient and six ARID1A-deficient cell lines, cell viability, colony formation): selectively sensitive to BSO | apoptosis (caspase activation, Annexin V) [5]: increased apoptosis | tumor weight ([6]; BSO 750 mg/kg): reduced tumor weight | body weight of mice ([6]; BSO 750 mg/kg once a day): without loss of body weight | growth of xenografts (tumor volume) ([6]; intraperitoneally once daily 12-14 days, BSO 750 mg/kg): markedly suppressed xenograft growth | ROS level in cancer cell lines (ROS): increased ROS levels | sensitivity of ARID1A-deficient versus ARID1A-positive PDCs (ovarian PDCs): more sensitive | sensitivity to BSO of uterine cancer cell lines [7]: sensitized ARID1A-deficient cell lines more efficiently than ARID1A-proficient cell lines
